Experiments:
[1] = system: Colletotrichum lagenarium; assay: Growth of germs on potato dextrose-agar medium containing the compound (Ex. 10, germ of anthracnose on watermelons); type: cell-based; parameters: key: +++: extremely much growth; ++: much growth; +: a little growth; -: no growth; settings: two weeks, 25° C.
Experimental: (§1) Ethyl 2-(2-hydroxyethylamino)-3-benzoylpropionate hydrochloride was added to potato dextrose-agar culture medium in the concentration indicated in Table 1 and the suspensions of various kinds of germs were dropped on the culture medium. After incubation of the germs for two weeks in thermostat (25° C.), the growing conditions were observed.
(§2) In Table 1, +++, ++, + and - represent "extremely much growth", "much growth", "a little growth" and "no growth" respectively.
^2 Germ of anthracnose on watermelons

[2] = system: Alternaria solani; assay: Growth of germs on potato dextrose-agar medium containing the compound (Ex. 6); type: cell-based; parameters: key: +++: extremely much growth; ++: much growth; +: a little growth; -: no growth; settings: two weeks, 25° C.
Experimental: as §1, §2

[3] = system: Valsa ceratosperma; assay: Length of disease spots on apple branches treated on the third day after inoculation (Ex. 17); type: in vivo; settings: 1000 ppm on third day after inoculation
Experimental: (§3) Branches of Delicious apple (branch diameter: about 1 cm. thick) grown for 1-2 years were cut to 10 cm. length. The cut branches were dried in a low temperature chamber (3° C.) until the water content of the cut branches became 50%. The dried cut branches were immersed in an aqueous solution of ethyl 2-(2-hydroxyethylamino)-3-benzoylpropionate hydrochloride (500 ppm, 1000 ppm and 2500 ppm) for one minute and then dried.
(§4) Each cut branch was end bored by a white heated 8 mm diameter cork borer. Valsa ceratosperma, previously cultured for four days on a potato dextrose-agar culture medium, was introduced into the branch by inoculating the branch with the Valsa ceratosperma containing culture by means of the sterilized cork borer. The branches prepared in this way were placed on wet filter paper spread in a polyethylene tray. The tray was inserted into a polyethylene bag which was sealed and then the bag was put into a thermostat (25° C.) for various controlled times.
(§5) After removal from the thermostat, the length of disease spots on each branch was measured.
The same experiment as in Example 16 was carried out except that the apple branches were treated with the germicides (1000 ppm) on the third day after the branches were inoculated with the germ. The lengths of disease spots on the third day […], fifth day and seventh day were 5.1 mm, 5.2 mm and 5.2 mm respectively.

[4] = system: Stemphylium lycopersici; assay: Growth of germs on potato dextrose-agar medium containing the compound (Ex. 7); type: cell-based; parameters: key: +++: extremely much growth; ++: much growth; +: a little growth; -: no growth; settings: two weeks, 25° C.
Experimental: as §1, §2

[5] = system: Fusarium oxysporum f. lycopersici; assay: Growth of germs on potato dextrose-agar medium containing the compound (Ex. 8); type: cell-based; parameters: key: +++: extremely much growth; ++: much growth; +: a little growth; -: no growth; settings: two weeks, 25° C.
Experimental: as §1, §2

[6] = system: Sclerotinia sclerotiorum; assay: Growth of germs on potato dextrose-agar medium containing the compound (Ex. 12); type: cell-based; parameters: key: +++: extremely much growth; ++: much growth; +: a little growth; -: no growth; settings: two weeks, 25° C.
Experimental: as §1, §2

[7] = system: Verticillium alboatrum; assay: Growth of germs on potato dextrose-agar medium containing the compound (Ex. 2); type: cell-based; parameters: key: +++: extremely much growth; ++: much growth; +: a little growth; -: no growth; settings: two weeks, 25° C.
Experimental: as §1, §2

[8] = system: Cladosporium fulvum; assay: Growth of germs on potato dextrose-agar medium containing the compound (Ex. 5); type: cell-based; parameters: key: +++: extremely much growth; ++: much growth; +: a little growth; -: no growth; settings: two weeks, 25° C.
Experimental: as §1, §2

[9] = system: Botrytis alli; assay: Growth of germs on potato dextrose-agar medium containing the compound (Ex. 3); type: cell-based; parameters: key: +++: extremely much growth; ++: much growth; +: a little growth; -: no growth; settings: two weeks, 25° C.
Experimental: as §1, §2

[10] = system: Valsa ceratosperma; assay: Length of disease spots on cut apple branches immersed in germicide before inoculation (Ex. 16); type: in vivo; settings: 25° C.
Experimental: as §3, §4, §5
A similar experiment for comparison was carried out using Benomyl, i.e. methyl-1-(buthylcarbamoyl)-2-benzimidazole carbamate as the germicide. The results of the comparative experiment and also a control experiment, in which the dried cut branches were not immersed in germicide (blank), are also shown in Table 2.

[11] = system: Cercospora kikuchii; assay: Growth of germs on potato dextrose-agar medium containing the compound (Ex. 15); type: cell-based; parameters: key: +++: extremely much growth; ++: much growth; +: a little growth; -: no growth; settings: two weeks, 25° C.
Experimental: as §1, §2

[12] = system: Cladosporium cucumerium; assay: Prevention effect for cucumber scab (Ex. 19); type: in vivo; settings: for Germicidal damage to seedlings: cucumber seedlings; for Percentage of leaf area with disease spots / Percentage of leaves attacked with the disease / Prevention value per leaf (Perfect prevention = 100): eighth day after spraying
From the text: The prevention effect for cucumber scab was examined in the following manner.
An aqueous solution of ethyl 2-(2-hydroxyethylamino)-3-benzoylpropionate hydrochloride (2500 ppm or 5000 ppm) was sprayed on cucumber seedlings (bifoliate age) of Tokiwa Hikari No. 3 (p type) variety which were planted in sections in two rows of three.
After air-drying the seedlings, a spore suspention of Cladosporium cucumerium was inoculated on the test seedlings by means of a glass sprayer. The inoculated seedlings were kept at 18°-20° C. for four days in an inoculation box and then allowed to stand in a glass chamber.
The leaf area on which scab spots appeared was measured on the eighth day after spraying the aqueous germicide solution. The spotted area is expressed as a prevention value.

CCOC(=O)C(CC(=O)c1ccccc1)NCCO.Cl (centres unmarked) [Ethyl 2-(2-hydroxyethylamino)-3-benzoylpropionate hydrochloride]
growing conditions (growth of germ) ([1]; 10 ppm): ++
growing conditions (growth of germ) ([1]; 20 ppm): ++
growing conditions (growth of germ) ([1]; 50 ppm): -
growing conditions (growth of germ) ([1]; 100 ppm): -
growing conditions (growth of germ) ([1]; 200 ppm): -
growing conditions (growth of germ) ([2]; 10 ppm): ++
growing conditions (growth of germ) ([2]; 20 ppm): -
growing conditions (growth of germ) ([2]; 50 ppm): -
growing conditions (growth of germ) ([2]; 100 ppm): -
growing conditions (growth of germ) ([2]; 200 ppm): -
lengths of disease spots ([3]; fifth day): 5.2 mm
lengths of disease spots ([3]; seventh day): 5.2 mm
lengths of disease spots ([3]; third day): 5.1 mm
growing conditions (growth of germ) ([4]; 10 ppm): +
growing conditions (growth of germ) ([4]; 20 ppm): +
growing conditions (growth of germ) ([4]; 50 ppm): -
growing conditions (growth of germ) ([4]; 100 ppm): -
growing conditions (growth of germ) ([4]; 200 ppm): -
growing conditions (growth of germ) ([5]; 10 ppm): +++
growing conditions (growth of germ) ([5]; 20 ppm): ++
growing conditions (growth of germ) ([5]; 50 ppm): -
growing conditions (growth of germ) ([5]; 100 ppm): -
growing conditions (growth of germ) ([5]; 200 ppm): -
growing conditions (growth of germ) ([6]; 10 ppm): +++
growing conditions (growth of germ) ([6]; 20 ppm): +++
growing conditions (growth of germ) ([6]; 50 ppm): -
growing conditions (growth of germ) ([6]; 100 ppm): -
growing conditions (growth of germ) ([6]; 200 ppm): -
growing conditions (growth of germ) ([7]; 10 ppm): +++
growing conditions (growth of germ) ([7]; 20 ppm): ++
growing conditions (growth of germ) ([7]; 50 ppm): -
growing conditions (growth of germ) ([7]; 100 ppm): -
growing conditions (growth of germ) ([7]; 200 ppm): -
growing conditions (growth of germ) ([8]; 10 ppm): ++
growing conditions (growth of germ) ([8]; 20 ppm): -
growing conditions (growth of germ) ([8]; 50 ppm): -
growing conditions (growth of germ) ([8]; 100 ppm): -
growing conditions (growth of germ) ([8]; 200 ppm): -
growing conditions (growth of germ) ([9]; 10 ppm): +
growing conditions (growth of germ) ([9]; 20 ppm): -
growing conditions (growth of germ) ([9]; 50 ppm): -
growing conditions (growth of germ) ([9]; 100 ppm): -
growing conditions (growth of germ) ([9]; 200 ppm): -
Length of disease spot ([10]; 500 ppm, after 3 days): 0 mm
Length of disease spot ([10]; 500 ppm, after 5 days): 0 mm
Length of disease spot ([10]; 500 ppm, after 7 days): 0.2 mm
Length of disease spot ([10]; 1000 ppm, after 3 days): 0 mm
Length of disease spot ([10]; 1000 ppm, after 5 days): 0 mm
Length of disease spot ([10]; 1000 ppm, after 7 days): 0 mm
Length of disease spot ([10]; 2500 ppm, after 3 days): 0 mm
Length of disease spot ([10]; 2500 ppm, after 5 days): 0 mm
Length of disease spot ([10]; 2500 ppm, after 7 days): 0 mm
growing conditions (growth of germ) ([11]; 10 ppm): +
growing conditions (growth of germ) ([11]; 20 ppm): -
growing conditions (growth of germ) ([11]; 50 ppm): -
growing conditions (growth of germ) ([11]; 100 ppm): -
growing conditions (growth of germ) ([11]; 200 ppm): -
Germicidal damage to seedlings ([12]; 2500 ppm): none
Percentage of leaf area with disease spots ([12]; 2500 ppm): 25.0%
Percentage of leaves attacked with the disease ([12]; 2500 ppm): 100%
Prevention value per leaf (Perfect prevention = 100) ([12]; 2500 ppm): 63.4
Germicidal damage to seedlings ([12]; 5000 ppm): none
Percentage of leaf area with disease spots ([12]; 5000 ppm): 20.0%
Percentage of leaves attacked with the disease ([12]; 5000 ppm): 100%
Prevention value per leaf (Perfect prevention = 100) ([12]; 5000 ppm): 70.7

From patent publication US4241083A, “Germicidal composition for agriculture and horticulture” (priority 1978, dated 1980)
